Structures are written as SMILES.

The target in the first assay is TAAR1 (Mus musculus, UniProt Q923Y8). Nature of the assay: TAAR1 radioligand binding, membranes of stably transfected HEK293 cells (mouse).
Details: not given
Summed up:
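Competition binding on membranes from HEK293 cells stably expressing the TAAR1 species ortholog, in HEPES-NaOH pH 7.0 with 10 mM MgCl2 and 2 mM CaCl2, 30 min at 4° C with [3H]-rac-2-(1,2,3,4-tetrahydro-1-naphthyl)-2-imidazoline. Competitors 10 pM–30 μM, duplicates; non-specific binding with 10 μM unlabelled ligand; filtration and scintillation counting.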
Consider `NC1=NC(c2cccc(Cl)c2)CO1` (racemic) [Example 185, (RS)-4-(3-Chloro-phenyl)-4,5-dihydro-oxazol-2-ylamine], for which the Ki is 0.005 µM.

Take `NC1=NC(c2ccc(Br)cc2F)CO1` (racemic) [Example 349, (RS)-4-(4-Bromo-2-fluoro-phenyl)-4,5-dihydro-oxazol-2-ylamine]: the Ki was determined as 0.0023 µM.

In turn, `NC1=N[C@@H](CCc2ccc(F)cc2Cl)CO1` [Example 139, (S)-4-[2-(2-Chloro-4-fluoro-phenyl)-ethyl]-4,5-dihydro-oxazol-2-ylamine] displayed a Ki of 0.0019 µM.

Consider `NC1=NC(c2ccc(OCc3ccccc3)cc2)CO1` (racemic) [Example 22, (RS)-4-(4-Benzyloxy-phenyl)-4,5-dihydro-oxazol-2-ylamine], for which the Ki came to 0.0011 µM.

`NC1=NC(c2ccc(Br)c(Cl)c2)CO1` (racemic) [Example 326, (RS)-4-(4-Bromo-3-chloro-phenyl)-4,5-dihydro-oxazol-2-ylamine]: the Ki was 0.001 µM.

For `NC1=NC(C2CCc3ccccc3C2)CO1` (racemic) [Example 84, (RS)-4-(1,2,3,4-Tetrahydro-naphthalen-2-yl)-4,5-dihydro-oxazol-2-ylamine], the Ki came to 0.0017 µM.

Molecule `Cc1ccccc1C1COC(N)=N1` (racemic) [Example 8, (RS)-4-o-Tolyl-4,5-dihydro-oxazol-2-ylamine] displayed a Ki of 0.0058 µM.

`NC1=NC(c2ccccc2C(F)(F)F)CO1` (racemic) [Example 6, (RS)-4-(2-Trifluoromethyl-phenyl)-4,5-dihydro-oxazol-2-ylamine]: the Ki worked out at 0.0038 µM.

`NC1=NC(c2ccc(F)cc2C(F)(F)F)CO1` (racemic) [Example 224, (RS)-4-(4-Fluoro-2-trifluoromethyl-phenyl)-4,5-dihydro-oxazol-2-ylamine] showed a Ki of 0.0063 µM.

Consider `NC1=NC(c2cc(Cl)ccc2C(F)(F)F)CO1` (racemic) [Example 225, (RS)-4-(5-Chloro-2-trifluoromethyl-phenyl)-4,5-dihydro-oxazol-2-ylamine], for which the Ki worked out at 0.0062 µM.

`NC1=NC(c2ccc(F)cc2F)CO1` (racemic) [Example 7, (RS)-4-(2,4-Difluoro-phenyl)-4,5-dihydro-oxazol-2-ylamine] yielded a Ki of 0.0083 µM.

The assay is the same for the next values; noted with them: mouse/rat; cell not marked 'rat'; radioligand [3H]-rac-2-(1,2,3,4-tetrahydro-1-naphthyl)-2-imidazoline, 4° C.; read-out: Ki (μM) mouse/rat.
For `NC1=N[C@H](CCc2ccccc2)CO1` [80 (R), (R)-4-phenethyl-4,5-dihydro-oxazol-2-ylamine], the Ki came to 0.0083 µM.

With `NC1=N[C@@H](CCc2cccc(Br)c2)CO1` [Example 143, (S)-4-[2-(3-Bromo-phenyl)-ethyl]-4,5-dihydro-oxazol-2-ylamine], the Ki turned out to be 0.0007 µM.

For `NC1=N[C@@H](CCc2ccccc2C(F)(F)F)CO1` [Example 110, (S)-4-[2-(2-Trifluoromethyl-phenyl)-ethyl]-4,5-dihydro-oxazol-2-ylamine], the Ki was found to be 0.0018 µM.

`NC1=N[C@@H](CCc2ccc(F)cc2)CO1` [Example 85, (S)-4-[2-(4-Fluoro-phenyl)-ethyl]-4,5-dihydro-oxazol-2-ylamine]: the Ki stood at 0.0011 µM.

As to `CC1(c2ccc(Cl)cc2Cl)COC(N)=N1` (racemic) [Example 294, (RS)-4-(2,4-Dichloro-phenyl)-4-methyl-4,5-dihydro-oxazol-2-ylamine], the Ki was 0.0038 µM.

As for `CCC(C[C@H]1COC(N)=N1)c1ccc(F)c(F)c1` (stereo partly drawn) [Example 211, (S)-4-[2-(3,4-Difluoro-phenyl)-butyl]-4,5-dihydro-oxazol-2-ylamine], the Ki came out at 0.0024 µM.

In the case of `NC1=N[C@@H](c2ccc(F)c(F)c2)CO1` [Example 166, (S)-4-(3,4-Difluoro-phenyl)-4,5-dihydro-oxazol-2-ylamine], the Ki was 0.0047 µM.

As to `NC1=N[C@@H](c2cccc(C(F)(F)F)c2)CO1` [Example 153, (S)-4-(3-Trifluoromethyl-phenyl)-4,5-dihydro-oxazol-2-ylamine], the Ki was determined as 0.0083 µM.

As for `Cc1ccc([C@@]2(C)COC(N)=N2)cc1` [Example 161, (S)-4-Methyl-4-p-tolyl-4,5-dihydro-oxazol-2-ylamine], the Ki turned out to be 0.0062 µM.

For the molecule `CCC(C[C@H]1COC(N)=N1)c1cccc(C(F)(F)F)c1` (stereo partly drawn) [Example 194, (S)-4-[2-(3-Trifluoromethyl-phenyl)-butyl]-4,5-dihydro-oxazol-2-ylamine], the Ki was found to be 0.0073 µM.

With `NC1=N[C@@H](CCc2cccc(C(F)(F)F)c2Cl)CO1` [Example 151, (S)-4-[2-(2-Chloro-3-trifluoromethyl-phenyl)-ethyl]-4,5-dihydro-oxazol-2-ylamine], the Ki turned out to be 0.001 µM.

With `NC1=N[C@@H](CCc2cccc(F)c2)CO1` [Example 112, (S)-4-[2-(3-Fluoro-phenyl)-ethyl]-4,5-dihydro-oxazol-2-ylamine], the Ki was 0.0012 µM.

Regarding `NC1=N[C@@H](CCc2cccc(Cl)c2)CO1` [Example 232, (S)-4-[2-(3-Chloro-phenyl)-ethyl]-4,5-dihydro-oxazol-2-ylamine], the Ki was 0.0006 µM.

With `C[C@]1(c2ccc(Cl)c(F)c2)COC(N)=N1` [Example 236, (S)-4-(4-Chloro-3-fluoro-phenyl)-4-methyl-4,5-dihydro-oxazol-2-ylamine], the Ki worked out at 0.002 µM.

In the case of `COc1cc(CC[C@H]2COC(N)=N2)ccc1F` [Example 86, (S)-4-[2-(4-Fluoro-3-methoxy-phenyl)-ethyl]-4,5-dihydro-oxazol-2-ylamine], the Ki came to 0.0008 µM.

For `CCC(C[C@H]1COC(N)=N1)c1ccccc1` (stereo partly drawn) [Example 163, (S)-4-(2-Phenyl-butyl)-4,5-dihydro-oxazol-2-ylamine], the Ki stood at 0.0037 µM.

As to `C[C@]1(CCc2cccc(Cl)c2)COC(N)=N1` [Example 246, (S)-4-[2-(3-Chloro-phenyl)-ethyl]-4-methyl-4,5-dihydro-oxazol-2-ylamine], the Ki worked out at 0.0055 µM.

For `NC1=N[C@@H](CCc2cc(C(F)(F)F)ccc2F)CO1` [Example 156, (S)-4-[2-(2-Fluoro-5-trifluoromethyl-phenyl)-ethyl]-4,5-dihydro-oxazol-2-ylamine], the Ki was determined as 0.0064 µM.

Regarding `NC1=N[C@@H](c2cc(Cl)ccc2Cl)CO1` [Example 298, (+)-(S)-4-(2,5-Dichloro-phenyl)-4,5-dihydro-oxazol-2-ylamine], the Ki was 0.0004 µM.

On to `CCC(C[C@H]1COC(N)=N1)c1cccc(F)c1` (stereo partly drawn) [Example 340, (S)-4-[2-(3-Fluoro-phenyl)-butyl]-4,5-dihydro-oxazol-2-ylamine], for which the Ki turned out to be 0.002 µM.

With `CCC(C[C@H]1COC(N)=N1)c1ccc(F)cc1` (stereo partly drawn) [Example 210, (S)-4-[2-(4-Fluoro-phenyl)-butyl]-4,5-dihydro-oxazol-2-ylamine], the Ki worked out at 0.0014 µM.

With `CC(C[C@H]1COC(N)=N1)c1ccc(Cl)c(Cl)c1` (stereo partly drawn) [Example 221, (S)-4-[2-(3,4-Dichloro-phenyl)-propyl]-4,5-dihydro-oxazol-2-ylamine], the Ki was found to be 0.0022 µM.

Consider `NC1=N[C@@H](c2ccc3ccccc3c2)CO1` [Example 103, (S)-4-Naphthalen-2-yl-4,5-dihydro-oxazol-2-ylamine], for which the Ki is 0.0004 µM.

On to `NC1=N[C@@H](c2ccccc2Br)CO1` [Example 265, (+)-(S)-4-(2-Bromo-phenyl)-4,5-dihydro-oxazol-2-ylamine], for which the Ki was determined as 0.0009 µM.

For the molecule `NC1=NC(CCC2CCCCC2)CO1` (stereo in doubt) [Example 332, (S)-4-(2-Cyclohexyl-ethyl)-4,5-dihydro-oxazol-2-ylamine], the Ki turned out to be 0.0061 µM.

For the origin of these results see patent US8604061B2, “2-aminooxazolines as TAAR1 ligands” (Hoffmann-La Roche Inc., priority 2007, dated 2013).
